Experimental data as given in US9439980B2, “Thymidylate kinase fusions and uses thereof” (priority 2008, dated 2016).

Tested on: Jurkat cells
Assay: HPLC determination of AZT metabolites in cells treated with 100 μM AZT
Assay type: cell-based, human
Conditions: 36 hrs
Experimental: The cells were cultured in the presence of 100 μM AZT for 36 hrs. 10^7 cells were homogenized by sonication in 100 μl of 5% (w/v) trichloroacetic acid. The supernatant is collected after homogenate had been centrifuged at 10,000×g for 15 min at 4° C. The trichloroacetic acid was removed by extraction with an equal volume of 20% tri-n-octylamine in pentane. The neutralized aqueous fraction is directly injected into HPLC. Separation of AZT and its metabolites was performed on a C18 column (Waters) with a mobile phase composed of 0.2 M phosphate buffer containing 4 mM tetrabutylammonium hydrogen sulfate (pH 7.5) and acetonitrile in the ratio of 97:3 (v/v). The mobile phase was pumped at a flow rate of 1.5 ml/min. The UV absorbance was monitored at 270 nm. Five million cell equivalents were injected and analyzed in triplicate.

SMILES: Cc1cn([C@H]2C[C@H](N=[N+]=[N-])[C@@H](CO)O2)c(=O)[nH]c1=O [AZT, 3′-azido-3′-deoxythymidine]
- conversion ratio of AZT-TP to AZT-MP in non-transduced cells: 0.02
